The assay concerns BDF1 mice, P388 leukemia ip, median survival T/C. The experiment in a line: NCI In Vivo Anticancer Drug Screen. Data for tumor model P388 Leukemia (intraperitoneal) in B6D2F1 (BDF1) mice. The conditions noted are these: endpoint: median survival time, higher = longer survival. A digest of the protocol:
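Survival ratio, drug arm over vehicle arm, in mice with a transplanted tumour.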

Where [1] appears, read: dose: 50.0 mg/kg/injection, schedule: Q01DX009 (ip), vehicle: saline with Tween-80.
[2] abbreviates: dose: 100.0 mg/kg/injection, schedule: Q01DX009 (ip), vehicle: saline with Tween-80.
Where [3] appears, read: dose: 200.0 mg/kg/injection, schedule: Q01DX009 (ip), vehicle: saline with Tween-80.

The structures appear in SMILES notation. Several values for one entry are separate records, joined by “and”; a condition that tells them apart may be missing. Equal entries are not always repeated. Toxic doses and inconclusive results are not listed. Starred links: 1 amine or outer side, 2 acyl side, 3 side chain; linkers in the order of their positions; H or OH if unused. Positions of bridges follow the written chain, without caps; N, C: chain ends. Non-standard residues stand in square brackets, D forms with d. Residues, ends and D or L forms follow the SMILES beside them. Chains are numbered I, II in the order given. Actinocin(1to9) = Cc1c2oc3c(C)ccc(C(=O)[*:2])c3nc-2c(C(=O)[*:1])c(N)c1=O; NMeV = CN[CH](C(=O)O)C(C)C; Sar = CNCC(=O)O

Consider `COC(=O)C1CN(c2ccccc2)N=C1C(C)=O` (centres undefined), for which the T/C is, setting by setting: (dose: 100.0 mg/kg/injection, schedule: Q04DX003 (ip), vehicle: saline with Tween-80) 89 % of control; (dose: 200.0 mg/kg/injection, schedule: Q04DX003 (ip), vehicle: saline with Tween-80) 86 % of control.
With `CN(C)c1ccc(/C=C2\C=Cc3ccccc32)cc1F`, the T/C is, setting by setting: (dose: 44.0 mg/kg/injection, schedule: Q04DX003 (ip), vehicle: saline sonified) 90 % of control; (dose: 66.0 mg/kg/injection, schedule: Q04DX003 (ip), vehicle: saline sonified) 100 % of control; (dose: 100.0 mg/kg/injection, schedule: Q01DX009 (ip), vehicle: saline sonified) 104 % of control; (dose: 100.0 mg/kg/injection, schedule: Q04DX003 (ip), vehicle: saline sonified) 90 % of control; (dose: 150.0 mg/kg/injection, schedule: Q04DX003 (ip), vehicle: saline sonified) 95 % of control; (dose: 200.0 mg/kg/injection, schedule: Q01DX009 (ip), vehicle: saline sonified) 100 % of control. Also, the T/C reads like this: (dose: 200.0 mg/kg/injection, schedule: Q04DX003 (ip), vehicle: saline sonified) 110 % of control; (dose: 400.0 mg/kg/injection, schedule: Q01DX009 (ip), vehicle: saline sonified) 104 % of control; (dose: 400.0 mg/kg/injection, schedule: Q04DX003 (ip), vehicle: saline sonified) 120 % of control.
Regarding `COc1c2ccoc2nc2c(OC)c3c(cc12)OCO3`, the T/C was 109 % of control (dose: 12.5 mg/kg/injection, schedule: Q01DX009 (ip), vehicle: saline); 107 % of control (dose: 25.0 mg/kg/injection, schedule: Q01DX009 (ip), vehicle: saline); 109 % of control (dose: 50.0 mg/kg/injection, schedule: Q01DX009 (ip), vehicle: saline).
For `CCC(C)C1NC(=O)C(NC(=O)c2c3nc4c(C(=O)NC5C(=O)NC(C(C)C)C(=O)N6CCCC6C(=O)N(C)CC(=O)N(C)C(C(C)C)C(=O)OC5C)ccc(C)c4oc-3c(C)c(=O)c2N)C(C)OC(=O)C(C(C)C)N(C)C(=O)CN(C)C(=O)C2CCCN2C1=O` (centres undefined) (I: TIP[Sar][NMeV] / II: TVP[Sar][NMeV]; ester I:1-I:C, II:1-II:C; linker I:N-II:N via Actinocin(1to9); configuration not given here), the T/C is 300 % of control (dose: 0.05 mg/kg/injection, schedule: Q01DX010 (ip), vehicle: saline); 100 % of control (dose: 0.1 mg/kg/injection, schedule: Q01DX010 (ip), vehicle: saline); 175 % of control (dose: 0.2 mg/kg/injection, schedule: Q01DX001 (ip), vehicle: water); 155 % of control (dose: 0.4 mg/kg/injection, schedule: Q01DX001 (ip), vehicle: water); 175 % of control (dose: 0.8 mg/kg/injection, schedule: Q01DX001 (ip), vehicle: water); 118 % of control (dose: 3.1 micrograms/kg/injection, schedule: Q01DX001 (ip), vehicle: saline). Also, the T/C (dose: 3.1 micrograms/kg/injection, schedule: Q01DX010 (ip), vehicle: saline) was 180 % of control; the T/C (dose: 3.1 micrograms/kg/injection, schedule: Q04DX003 (ip), vehicle: saline) is 118 % of control; the T/C (dose: 6.0 micrograms/kg/injection, schedule: Q01DX010 (ip), vehicle: saline) was 180 % of control; the T/C (dose: 6.2 micrograms/kg/injection, schedule: Q01DX010 (ip), vehicle: saline) is 190 % of control; the T/C (dose: 6.3 micrograms/kg/injection, schedule: Q01DX001 (ip), vehicle: saline) is 109 % of control; the T/C (dose: 12.5 micrograms/kg/injection, schedule: Q01DX009 (ip), vehicle: water) was 213 % of control. Further, the T/C is 228 % of control and 220 % of control (dose: 12.5 micrograms/kg/injection, schedule: Q01DX010 (ip), vehicle: saline); 215 % of control (dose: 25.0 micrograms/kg/injection, schedule: Q01DX009 (ip), vehicle: water); 285 % of control and 220 % of control (dose: 25.0 micrograms/kg/injection, schedule: Q01DX010 (ip), vehicle: saline); 154 % of control (dose: 25.0 micrograms/kg/injection, schedule: Q04DX003 (ip), vehicle: saline); 150 % of control (dose: 50.0 micrograms/kg/injection, schedule: Q01DX001 (ip), vehicle: saline); 215 % of control (dose: 50.0 micrograms/kg/injection, schedule: Q01DX009 (ip), vehicle: water). The T/C (dose: 50.0 micrograms/kg/injection, schedule: Q01DX010 (ip), vehicle: saline) was 285 % of control and 300 % of control; the T/C (dose: 50.0 micrograms/kg/injection, schedule: Q04DX003 (ip), vehicle: saline) was 190 % of control; the T/C (dose: 75.0 micrograms/kg/injection, schedule: Q04DX003 (ip), vehicle: water) was 172 % of control; the T/C (dose: 100.0 micrograms/kg/injection, schedule: Q01DX001 (ip), vehicle: saline) was 159 % of control; the T/C (dose: 100.0 micrograms/kg/injection, schedule: Q01DX009 (ip), vehicle: water) was 243 % of control; the T/C (dose: 100.0 micrograms/kg/injection, schedule: Q01DX010 (ip), vehicle: saline) was 110 % of control. For the same molecule, the T/C runs as follows: (dose: 100.0 micrograms/kg/injection, schedule: Q04DX003 (ip), vehicle: saline) 186 % of control; (dose: 150.0 micrograms/kg/injection, schedule: Q04DX003 (ip), vehicle: water) 181 % of control; (dose: 200.0 micrograms/kg/injection, schedule: Q01DX001 (ip), vehicle: saline) 186 % of control; (dose: 200.0 micrograms/kg/injection, schedule: Q01DX010 (ip), vehicle: saline) 90 % of control; (dose: 200.0 micrograms/kg/injection, schedule: Q04DX003 (ip), vehicle: saline) 231 % of control; (dose: 300.0 micrograms/kg/injection, schedule: Q04DX003 (ip), vehicle: water) 241 % of control. The T/C runs as follows: (dose: 400.0 micrograms/kg/injection, schedule: Q01DX001 (ip), vehicle: saline) 218 % of control; (dose: 400.0 micrograms/kg/injection, schedule: Q04DX003 (ip), vehicle: saline) 263 % of control; (dose: 600.0 micrograms/kg/injection, schedule: Q04DX003 (ip), vehicle: water) 267 % of control.
As to `C#CCOC(=O)Nc1ccccc1Cl`, the T/C is 110 % of control (dose: 50.0 mg/kg/injection, schedule: Q01DX009 (ip), vehicle: Klucel (hydroxypropylcellulose) (HPC)); 100 % of control (dose: 50.0 mg/kg/injection, schedule: Q04DX003 (ip), vehicle: Klucel (hydroxypropylcellulose) (HPC)); 100 % of control (dose: 100.0 mg/kg/injection, schedule: Q01DX009 (ip), vehicle: Klucel (hydroxypropylcellulose) (HPC)); 109 % of control (dose: 100.0 mg/kg/injection, schedule: Q04DX003 (ip), vehicle: Klucel (hydroxypropylcellulose) (HPC)); 100 % of control (dose: 200.0 mg/kg/injection, schedule: Q01DX009 (ip), vehicle: Klucel (hydroxypropylcellulose) (HPC)); 109 % of control (dose: 200.0 mg/kg/injection, schedule: Q04DX003 (ip), vehicle: Klucel (hydroxypropylcellulose) (HPC)).
On to `O=[N+]([O-])c1ccc(-c2ncc3cnccn23)cc1`, for which the T/C reads like this: (dose: 100.0 mg/kg/injection, schedule: Q04DX003 (ip), vehicle: saline) 111 % of control; (dose: 200.0 mg/kg/injection, schedule: Q04DX003 (ip), vehicle: saline) 97 % of control; (dose: 400.0 mg/kg/injection, schedule: Q04DX003 (ip), vehicle: saline) 102 % of control.
On to `CCC[n+]1ccc(/C=N\NC(N)=S)c2ccccc21`, for which the T/C runs as follows: (dose: 25.0 mg/kg/injection, schedule: Q01DX009 (ip), vehicle: saline with Tween-80) 94 % of control; under setting [1], 103 % of control; under setting [2], 122 % of control; under setting [3], 122 % of control.
With `O=C1CC(=O)N(c2ccccc2)C(=O)N1`, the T/C by setting is: under setting [2], 94 % of control; under setting [3], 88 % of control; (dose: 400.0 mg/kg/injection, schedule: Q01DX009 (ip), vehicle: saline with Tween-80) 106 % of control.
With `CSC1=NN(c2ccccc2)CN(c2ccccc2)N1C`, the T/C is, setting by setting: under setting [1], 95 % of control; under setting [2], 88 % of control; under setting [3], 108 % of control.
For `COc1cccc2c1C(=O)c1c(O)c3c(c(O)c1C2=O)C[C@@](O)(C(=O)CO)C[C@@H]3OC1CC(N(C)C)C(O)C(C)O1` (some centres undefined), the T/C by setting is: (dose: 1.44 mg/kg/injection, schedule: Q04DX003 (ip), vehicle: water) 170 % of control; (dose: 2.4 mg/kg/injection, schedule: Q04DX003 (ip), vehicle: water) 198 % of control; (dose: 4.0 mg/kg/injection, schedule: Q04DX003 (ip), vehicle: water) 89 % of control.

The record behind these values is PubChem BioAssay AID328 (DTP/NCI, 2004).
